Measured values as given in patent publication US7332479B2, “Extracellular NAD+ and cADPR as potent anti-inflammatory agents” (University of Pittsburgh - of the Commonwealth System of …, priority 2003, dated 2008).

What was measured:
[1] = test system: occludin and ZO-1 in Caco-2 cells; assay: ZO-1 and occludin in NP-40-insoluble fraction, immunoprecipitation and Western blot, Caco-2 cells exposed to cytomix; assay type: cell-based, human
[2] = test system: Caco-2 human enterocyte-like cells; assay: Paracellular permeability of Caco-2 monolayers, apical-to-basolateral clearance of FD4, cytomix; assay type: cell-based
Protocol: Cell Culture. Caco-2 human enterocyte-like cells were routinely maintained at 37° C. in DMEM with 10% FBS, as described by Han et al. ^9 All cells were fed by changing the cell culture medium twice per week. For experiments, cells were grown on Transwell inserts (0.4 μm pore size; Corning Costar Corp., Cambridge, Mass.) and used 14-17 days post-confluence. […] Caco-2 monolayers growing on permeable supports were left untreated or exposed to cytomix for 24 or 48 h in the absence or presence of graded concentrations of NAD^+ or adenosine. Paracellular permeability was determined by measuring the apical-to-basolateral flux of FD4. Epithelial permeability was unaffected when monolayers were incubated with NAD^+ alone. Exposing Caco-2 cells to cytomix increased the clearance of FD4 across the monolayers (FIG. 1A). Addition of NAD^+ ameliorated cytomix-induced epithelial hyperpermeability in a concentration-dependent manner. […] NAD^+ is structurally related to a nucleoside, adenosine, that is known to exert anti-inflammatory effects by binding to certain purinergic receptors;^24 accordingly, the possibility that activation of a receptor for adenosine was responsible for the amelioration of cytokine-induced hyperpermeability by NAD^+ was considered. To investigate this idea, Caco-2 monolayers were exposed to cytomix in the absence or presence of 10 μmol/L adenosine (FIG. 1A).

mouse ileal mucosa = assay: Ileal mucosal permeability to FD4 (ex vivo everted gut sac) in LPS-injected mice; settings: LPS 17 mg/kg IP, two 132 mg/kg doses (IV then IP 12 h later), ileum at 18 h
Protocol: Animals. This research complied with regulations regarding animal care as published by the National Institutes of Health and was approved by the Institutional Animal Use and Care Committee of the University of Pittsburgh. Male 7-8 week old C57Bl/6J mice weighing 20-25 g were from Jackson Laboratories (Bar Harbor, Me.). To induce a systemic inflammatory response, mice were injected intraperitoneally (IP) with Escherichia coli (strain O111:B4) LPS (17 mg/kg) dissolved in 1.0 ml of PBS. Control animals were injected with a similar volume of PBS. Some mice were treated with an intravenous (IV) injection (100 μL) of either PBS or 132 mg/kg NAD^+ in PBS given 5 min before LPS or PBS injection, and this injection was repeated IP 12 h later. Groups of mice were anesthetized with 60-90 mg/kg sodium pentobarbital 18 h after the first injection with PBS or LPS. Segments of ileum were harvested to assess mucosal permeability to FD4 using an ex vivo everted gut sac method as previously described.^20
In the setting of systemic inflammation, circulating blood monocytes often encounter lipopolysaccharide (LPS), a potent inflammatory molecule derived from the outer surface of Gram-negative bacteria. […]

Caco-2 cells = assay: Immunofluorescence microscopy of ZO-1 and occludin localization in Caco-2 cells exposed to cytomix; assay type: cell-based, human; settings: cytomix 48 h, 10 μmol/L added at 0 and 24 h
Protocol: Immunofluorescence. All procedures were performed at 0-4° C. as described.^9 Caco-2 cells growing on 24 well clear Transwell inserts were fixed and stained with a mouse anti-ZO-1 monoclonal antibody (mAb; BD Translabs, Franklin Lakes, N.J.) and rabbit an anti-occludin polyclonal antibody diluted 1:100. The secondary antibodies were 5 μg/mL FITC-conjugated affinity-purified donkey anti-mouse IgG and 15 μg/mL TRITC-conjugated affinity-purified goat anti-rabbit IgG (Jackson ImmunoResearch Laboratories).
Immunofluorescence microscopy was used to assess the structure of TJs in Caco-2 cells grown on Transwells. The cells were either left untreated (FIG. 3; Panel CON) or exposed to cytomix for 48 h in the absence (Panel C48) or presence (Panel N10) of extracellular NAD^+ (10 μmol/L added at 0 and 24 h). The cells were permeabilized, fixed, and stained using FITC- and TRITC-conjugated antibodies directed against ZO-1 and occludin, respectively. In control confluent Caco-2 monolayers, these proteins both were predominantly localized to regions near cell-cell boundaries. Staining was even and continuous. Following treatment with cytomix, dispersed lesions appeared throughout the monolayer, in which immunostaining for ZO-1 at cell boundaries became faint, diffuse, and discontinuous. Exposure to cytomix also was associated with “ruffling” of ZO-1 and occludin immunostaining. […]

[3] = test system: mice challenged with a lethal dose of Escherichia coli O111:B4 LPS; assay: LPS-induced mortality in mice; assay type: in vivo; settings: LPS 17 mg/kg; intravenous and intraperitoneal, 1 mg/kg pre-treatment then 1 mg/kg every 6 h for five more doses
[4] = test system: NO. production by Caco-2 cells; assay: NO. production (NO2- and NO3- in culture supernatants) by Caco-2 cells exposed to cytomix; assay type: cell-based, human
Protocol: (§1) Measurement of NO. production and iNOS gene expression. NO. production^21 was measured and RT-PCR ^22 for iNOS mRNA and 18S RNA were performed as described. The gels were captured using an imaging workstation (NucleoVision), and quantified with GelExpert™ 3.5. Relative expression of iNOS is reported after normalizing for 18S loading in FIG. 4B.
(§2) Accordingly, it was determined whether NAD^+ decreased the production of NO. (as assessed by measuring NO2^− and NO3^− in culture supernatants) by Caco-2 cells exposed to cytomix (similar study using RAW monocyte-like cells is not shown). […] Again, there was a biphasic response to NAD^+ treatment; provided maximal inhibition and higher doses inhibited less well. Thus, another inflammatory response, namely the induction of iNOS gene expression and the concomitant production of NO., is blocked by extracellular NAD^+ in both myeloid and epithelial cells.

[5] = test system: inducible nitric oxide synthase (iNOS) mRNA; assay: iNOS mRNA expression by RT-PCR in Caco-2 cells exposed to cytomix; assay type: cell-based, human; settings: biphasic response
Protocol: as §1, §2

NF-κB [6] = assay: NF-κB DNA binding by electrophoretic mobility shift assay, Caco-2 cells exposed to cytomix; assay type: cell-based, human
Protocol: Electrophoretic mobility shift assay (EMSA). Nuclear extracts were prepared and analyzed as described.^23 However, 38.3 μL of 10% NP-40 was used to lyse the cells, the nuclei were isolated by centrifugation at 310 g for 3 min, and the nuclear pellets were resuspended in 80 μL of Buffer II.
iNOS induction is dependent, in part, on activation of the transcription factor NF-κB, a transcription factor that is required for a variety of monocyte inflammatory responses, e.g., to LPS. Therefore, we tested the ability of NAD^+ to inhibit DNA binding by NF-κB in Caco-2 cells exposed to cytomix. […] NAD^+ alone had no effect on the nuclear levels of NF-κB.

NF-κB [7] = assay: Nuclear NF-κB levels by electrophoretic mobility shift assay, LPS-stimulated RAW 264.7 cells; assay type: cell-based, mouse; settings: 10 ng/ml LPS, 15 min
Protocol: Additional studies were performed to show the potent anti-inflammatory capacity of extracellular NAD^+. RAW 264.7 cells in tissue culture dishes were stimulated with LPS prepared from Escherichia coli strain 011:B4, and the activation of NF-κB was measured. Some cells were exposed to 10 ng/ml LPS in the presence of 1-100 μM NAD. Nuclear proteins were extracted from the cells 15 min after exposure to the compounds, and NF-κB levels were determined using the electrophoretic mobility shift assay.
Thus, very low doses of extracellular NAD^+ can effectively block the activation of NF-κB, an important transcription factor mobilized during an inflammatory response.

TNF-α = assay: LPS-induced TNF-α release from RAW cells, ELISA; assay type: cell-based, mouse; settings: 1 μM
Protocol: Whether NAD^+ could prevent the production of tumor necrosis factor α (TNF-α), a potent proinflammatory cytokine produced by activated monocytes and macrophages, was tested. Supernatants were collected from RAW cells treated with LPS in the absence or presence of NAD^+. TNF-α levels were quantitated by ELISA.

In the case of `Nc1ncnc2c1ncn2[C@@H]1O[C@H](COP(=O)(O)OP(=O)(O)OC[C@H]2OC(O)[C@H](O)[C@@H]2O)[C@@H](O)[C@H]1O` (some centres unmarked) [ADP-ribose], the expression of occludin ([1]; cytomix, co-incubation with 10 or 100 μmol/L) is reported as “failed to preserve occludin expression”.
With `Nc1ncnc2c1ncn2[C@@H]1O[C@H](CO)[C@@H](O)[C@H]1O` [Adenosine, adenosine, reference compound] the “induction of hyperpermeability by cytomix” value ([2]; 10 μmol/L) was “no effect” and the “decrease in NP-40-insoluble occludin or ZO-1” value ([1]; cytomix 48 h with 10 μM) was “failed to prevent”.
For `NC(=O)c1ccc[n+]([C@@H]2O[C@H](COP(=O)([O-])OP(=O)(O)OC[C@H]3O[C@@H](n4cnc5c(N)ncnc54)[C@H](O)[C@@H]3O)[C@@H](O)[C@H]2O)c1` [NAD^+, nicotinamide adenine dinucleotide], the “increase in mucosal permeability to FD4 induced by LPS” value (mouse ileal mucosa) was “significantly ameliorated”, the “protection against cytomix-induced hyperpermeability” value ([2]; 10 and 100 μmol/L) was “statistically significant” and the cytomix-induced epithelial hyperpermeability ([2]; cytomix 24 or 48 h, graded concentrations, concentration-dependent) was “ameliorated”. The “Epithelial permeability (FD4 flux)” value ([2]; monolayers incubated with NAD+ alone, no cytomix) was “unaffected”, the “staining of ZO-1 and occludin at cell-cell boundaries” value (Caco-2 cells) was “continuous staining” and the mortality [3] was “completely prevented mortality”. For the same compound, the “concentration giving maximal inhibition of NO. production” value ([4]; cytomix) was 100 µmol/L, the “inhibition of NO. production” value ([4]; cytomix, 1000 μmol/L compared with 100 μmol/L) was “inhibition was decreased” and the “cytomix-increased production of NO.” value ([4]; graded concentrations) was “inhibited in a concentration-dependent manner”. The “cytomix-increased expression of iNOS mRNA” value [5] was “blocked this effect”, the “cytomix-induced NF-κB activation” value (NF-κB [6]; 1 μmol/L, nuclear extracts 4 h) was “no effect” and the “nuclear levels of NF-κB” value (NF-κB [6]; NAD+ alone, no cytomix) was “no effect”. For the same compound, the “NF-κB DNA binding” value (NF-κB [6]; cytomix, 10 or 100 μmol/L, nuclear extracts 4 h) was “clearly decreased”, the “nuclear localization of NF-κB” value (NF-κB [7]; 1 μM) was “dramatically decreased” and the “nuclear NF-κB levels” value (NF-κB [7]; 100 μM) was “near baseline levels”. For the same compound, the “LPS-induced release of TNF-α” value (TNF-α) was “partially blocked” and the “occludin and ZO-1 in NP-40-insoluble complexes” value ([1]; cytomix 48 h with 10 or 100 μmol/L) was “normal levels of these proteins were present”.
